# Source: patent US8652439B2, “Compositions of HSP60 peptides and viral antigens for vaccination and diagnosis” (priority 2005, dated 2014)
# “Also recorded” adds a separate entry of the source.
# Legend:
# MCMV [1] = assay: Immunization after MCMV challenge in combination with Gancyclovir; MCMV-DNA PCR in salivary glands; format: in vivo, BALB/c mice; settings: day 30 after challenge; GCV i.p. with or without one immunization on day 6
# Description: DNA was extracted from naïve and infected spleens and salivary gland using QiAmp Tissue Kit (QIAGEN Inc. Chatsworth, Calif., USA), according to appropriate QiAmp protocols. DNA oligonucleotide primers were synthesized according to the published sequence of MCMV gB gene (Rapp et al., 1992). […]. This gB gene primer pair amplifying a 356 bp segment was found the most sensitive in previous studies (Palmon et al., 1996). For gene amplification, 1 μg of DNA sample was added to the reaction mixture containing 200 μM each dNTP, 100 pmol each primer, 1.0 mM MgSO4, 10 mM KCl, 10 mM (NH4)2SO4, 20 mM Tris-HCl (pH 8.8), 0.1% Triton X-100 and 2 U of vent polymerase (Biolabs) in a total reaction volume of 50 μl each. Samples were amplified for 30 cycles in an automated thermal cycler (Perkin Elmer Cetus, USA). Each cycle entailed denaturation at 94° C. for 60 sec, annealing at 68° C. for 90 sec and primer extension at 72° C. for 120 sec. PCR products were electrophoretically separated on 1.5% agarose gel, stained with ethidium bromide, and photographed. The lower limit of detection for this method under the experimental conditions was 5 femtograms of viral DNA corresponding to about 20 copies of the MCMV genome (Palmon et al., 1996).
# 3-week old BALB/c mice were challenged i.p. with 5×10^4 pfu of MCMV (day 0). On day 6, mice were immunized once with IFA alone, 89pep or p458-89pep emulsified in IFA, as described above. Mice were treated with 100 μg of the anti viral medication Gancyclovir (GCV, Roche, Basel, Switzerland) i.p. on days 1, 2, 3, 4, 8, 9, 10 and 11 after challenge. Mice were sacrificed on day 30 after challenge and MCMV-DNA was measured by a PCR assay in the salivary glands, as specified above (FIG. 14A).
# MCMV [2] = assay: Infectious MCMV titers in salivary gland of immunized mice after MCMV challenge (plaque assay); format: in vivo, BALB/c mice; settings: for Infectious MCMV titer in salivary gland: immunized twice, peptides in IFA
# [3] = tested on: salivary gland mononuclear cells; assay: IFNγ-positive salivary gland mononuclear cells 28 days after MCMV challenge of vaccinated mice; format: in vivo, BALB/c mice; settings: 28 days after virus challenge of immunized mice; 8 hr 89pep stimulation
# IFN-γ = IFN-γ secretion of splenocytes from mice immunized with p15 conjugates, stimulated in vitro with p15; format: in vivo; settings: spleens 10 days after immunization; p15 25 μg/ml, 3 days
# Description: (§1) Mice were immunized with the following peptides as described in Example 8 using the following peptides: p15 (SEQ ID NO:11), p32 (SEQ ID NO:13), Ec27-p15 ([…], SEQ ID NO:77), and Mock-p15 ([…], SEQ ID NO:80—the p431 peptide fused to p15).
# (§2) Spleens were harvested 10 days after the immunization and splenocytes were cultured with p15 (25 μg/ml) for 3 days. Cell proliferation and IFNγ levels in the supernatants of spleen cell cultures were measured. Results are the average of 3 independent proliferation experiments. Ec27-Ep15* and Ec27-Ep15** are two identical but independent groups in the same experiment.
# splenocytes = assay: Proliferation of splenocytes from mice immunized with p15 conjugates, stimulated in vitro with p15; format: in vivo; settings: spleens 10 days after immunization; p15 25 μg/ml, 3 days
# Description: as §1, §2
# WNV = assay: Protective efficacy of immunization against WNV challenge (mortality); format: in vivo, BALB/c mice; settings: 3 immunizations; 10^6 pfu WNV; 21 days post challenge; 5 experiments
# IL-4 = IL-4 ELISA of spleen cell cultures after vaccination; format: in vivo, BALB/c mice; settings: spleen cell cultures of immunized mice
# IFNγ = IFNγ ELISA of spleen and salivary gland cell cultures after vaccination; format: in vivo, BALB/c mice; settings: 10 days after single immunization; for IFNγ secretion of spleen cells stimulated in vitro with p458: 3 d stimulation with p458
# [4] = tested on: IFNγ-positive spleen cells; assay: FACS intracellular IFNγ staining of spleen cells after vaccination; format: in vivo, BALB/c mice; settings: 7 days after one immunization; 5 days re-stimulation with 89pep
# Description: For phenotypic analysis, spleen and salivary gland mononuclear cells of MCMV-infected and naïve mice were cultured as described above and were stained for CD8 and CD4, IFNγ and IL-5 using directly-labeled antibodies (PharMingen, San Diego, Calif.). Intracellular cell staining (ICCS) for IFNγ, IL-4 and IL-5 was performed using PharMingen's Cytofix/Cytoperm Plus kit with GolgiPlug (containing Brefeldin A) according to the manufacturer's instructions. Briefly, GolgiPlug was added to the 8 h-incubated immune cell cultures (established as described above, with or w/o peptide stimulation). After the additional 6 h of incubation in the incubator cells (minimum 10^6 per sample) were harvested, washed in PBS supplemented with 2% FBS and 0.09% Sodium azide, and incubated in 50 μl of FC blocker, labeled with anti-CD4 and anti-CD8 surface markers. Then cells were fixed, permeabilized and treated with anti-IFNγ, anti-IL-4 or anti-IL-5 antibodies for intracellular cytokine detection. Stained cells were immediately analyzed on a FACSCalibur flow cytometer (Becton-Dickinson, Mansfield, Mass.) and 50,000 to 100,000 events/sample were acquired and analyzed with CellQuest software.
# We characterized the nature of cells secreting the IFNγ by flow cytometry. Mice were immunized once with the different peptides and an additional group was infected with MCMV. Seven days later, spleens were removed and cell suspensions were cultured for 5 days with or without 89pep. […] Infection with MCMV and re-stimulation with 89pep induced the highest percentage of IFNγ^+CD8^+ T cells (FIG. 5B). Staining was specific to IFNγ since no CD8^+IL-4^+ or CD8^+IL-5^+ cells were observed.
# [5] = tested on: P815 cells pulsed with the 89pep; assay: Cytotoxic T cell assay of spleen cell cultures after vaccination; format: in vivo, BALB/c mice; settings: spleens 7 d after one immunization, 6 days re-stimulation with 89pep; P815 loaded with 89pep
# Description: The cytotoxic activity against the MCMV 89pep was assessed in a 4-h cytotoxic assay using the CytoTox 96 non-radioactive, colorimetric-based kit (Promega, Madison, Wis.), according to manufacturer instructions. This assay is based on the quantitative measurement of lactate dehydrogenase, a stable cytosolic enzyme that is released upon cell lysis. Spleen cell suspensions from immunized mice, prepared as described above, were re-stimulated in vitro for 6 days with 89pep (10 μg/ml) and rhIL-2 (25 IU/ml) from day 2. Target cells for the lysis assay were P815 cells (mastocytoma, H-2^d). P815 were either non-pulsed or pulsed with 89pep (1 μg/ml) for 2 h and then washed before incubation with effector cells. In all experiments shown, the spontaneous release was less than 25% of maximal release. Each point in a lysis assay represents the average of triplicate values. The range of the triplicates was within 5% of their mean.
# We also investigated whether the CD8^+IFNγ^+ cells induced by the p458-89pep were able to lyse specifically 89pep-loaded target cells. Mice were immunized once and 7 d later, spleens were harvested and re-stimulated with 89pep. Six days later, lytic activity was assayed on P815 (H-2^d) loaded with the 89pep. […]
# MCMV gB DNA = assay: PCR of MCMV gB DNA in salivary glands of immunized, MCMV-challenged mice; format: in vivo, BALB/c mice; settings: day 28 after MCMV challenge
# [6] = tested on: sera from WNV-exposed human subjects; assay: ELISA recognition of WNV peptides by human sera; format: binding; settings: ELISA, peptide as antigen
# Description: Sera from WNV-exposed and non-exposed human subjects was assayed for antibodies recognizing the novel WNV peptide antigens, p15 (SEQ ID NO:11) and p17 (SEQ ID NO:21). FIG. 17 presents the results of an ELISA test in which the p15 and p17 served as the antigen, human sera were used as the primary antibody and HRP-conjugated anti-human Abs were used as the secondary antibody. RLU are the relative luminescence units produced by HRP activity on the luminal substrate.
# Sera S2 and S6 are from human that were not infected with WNV while sera S1, S3-S5 and S7 are from human that had history of WNV infection.
compound,measurement,setting,value
"Nc1nc(O)c2ncn(COC(CO)CO)c2n1 [GCV, Gancyclovir]",CMV load at the salivary gland (MCMV-DNA PCR),MCMV [1],did not suffice for therapy
EGDEATGANI-KVALEAYPHFHPTNL (EGDEATGANIKVALEAYPHFHPTNL) [control-89pep],Effect of immunization on salivary gland viral load,MCMV [2]; day 28 after MCMV challenge,did not affect the viral load
FNNFTVSFWLRVPKVSASHLEYPHFMPTNL [TTp30-89pep],Effect of immunization on salivary gland viral load,MCMV [2]; day 28 after MCMV challenge,reduced viral load on day 28 by two fold; also recorded: failed to eliminate infectious virus on day 28; also recorded: contained infectious virus on day 28 post challenge
same,Effect of immunization on salivary gland viral load,MCMV [2]; days 14 and 21 after MCMV challenge,did not affect viral load on days 14 and 21
same,CD8+IFNγ+ cells in salivary gland,[3],CD8^+IFNγ^+ cells were observed
KKARVEDALHATRAAVEEGVLVTVNPFVSVATANS [Ec27-p15],IFN-γ secretion of spleen cells in the presence of p15,IFN-γ,more effective than p15 alone
same,Proliferation of spleen cells in the presence of p15,splenocytes,more effective than p15 alone
NEDQKIGIEIIKRALKI [p458],Mortality (% deaths),WNV,(57%)
same,Mortality (dead of total),WNV,4/7
same,IL-4 levels after Con-A stimulation in vitro,IL-4,184 pg/mL
same,IFNγ secretion of spleen cells stimulated in vitro with p458,IFNγ,high levels of IFNγ
NEDQKIGIEIIKRALKIYPHFHPTNL [p458-89pep],IFNγ+CD4+ T cells in spleen cell cultures,[4],no IFNγ^+CD4^+ T cells
same,IFNγ+CD8+ T cells in spleen cell cultures,[4],induced IFNγ^+CD8^+ T cells
same,Effect of immunization on salivary gland viral load,MCMV [2]; day 28 after MCMV challenge,showed no infectious MCMV in the salivary gland
same,Infectious MCMV titer in salivary gland,MCMV [2]; day 28 after MCMV challenge,< 2 log10 pfu/0.1 g
same,CMV load at the salivary gland (MCMV-DNA PCR),MCMV [1],reduced viral load to undetectable levels
same,IL-4 levels after Con-A stimulation in vitro,IL-4,317 pg/mL
same,89pep-specific lytic (CTL) activity,[5],lysed the target cells
same,CD8+IFNγ+ cells in salivary gland,[3],larger than that of the other groups
same,IFNγ secretion of spleen cells stimulated in vitro with p458,IFNγ,high levels of IFNγ
same,IFNγ secretion of spleen cells re-stimulated in vitro with 89pep,"IFNγ; 3 d stimulation, 89pep 10 μg/ml",significantly higher (p<0.05) levels of IFNγ
same,MCMV gB PCR product in salivary glands,MCMV gB DNA,failed to reveal any gB PCR product
YIVVGRGEQQINHHWHK [p17],Recognition by sera of WNV-exposed and unexposed human subjects,[6],specifically recognized by WNV-exposed sera and not by sera from unexposed subjects
YPHFHPTNL [89pep],IFNγ+CD8+ T cells in spleen cell cultures,[4],very few IFNγ^+CD8^+ T cells
same,Effect of immunization on salivary gland viral load,MCMV [2]; day 28 after MCMV challenge,marginal advantage compared to IFA-immunized mice; also recorded: contained infectious virus on day 28 post challenge
same,Infectious MCMV titer in salivary gland,MCMV [2]; day 28 after MCMV challenge,4.5 log10 pfu/0.1 g
same,CMV load at the salivary gland (MCMV-DNA PCR),MCMV [1],did not affect CMV load
same,IL-4 levels after Con-A stimulation in vitro,IL-4,146 pg/mL
same,89pep-specific lytic (CTL) activity,[5],No lytic activity was observed
same,CD8+IFNγ+ cells in salivary gland,[3],CD8^+IFNγ^+ cells were observed
